“And” between values parts separate entries of the source, which are not always exact repeats. Equal entries are not always repeated.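 Grown in 96-well plates, cells were treated for 48 hours with each compound at five concentrations. Insufficient inhibition: endpoint recorded as highest concentration tested. Abbreviation: GI50, concentration required for 50% inhibition of growth. The concentration for full growth arrest is given as TGI.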
Columns and labels:
Assay in all cases: inhibition of tumour cell growth, NCI panel, 48 h
HCT-116 colon = test system: HCT-116 colon
MDA-MB-435 = test system: MDA-MB-435
786-0 renal = test system: 786-0 renal
EKVX NSCLC = test system: EKVX NSCLC
TK-10 renal = test system: TK-10 renal
UACC-257 melanoma = test system: UACC-257 melanoma
DU-145 prostate = test system: DU-145 prostate
SK-MEL-5 melanoma = test system: SK-MEL-5 melanoma

| SMILES | GI50 (HCT-116 colon) | TGI (HCT-116 colon) | GI50 (MDA-MB-435) | TGI (MDA-MB-435) | GI50 (786-0 renal) | TGI (786-0 renal) | GI50 (EKVX NSCLC) | TGI (EKVX NSCLC) | GI50 (TK-10 renal) | TGI (TK-10 renal) | GI50 (UACC-257 melanoma) | TGI (UACC-257 melanoma) | GI50 (DU-145 prostate) | TGI (DU-145 prostate) | GI50 (SK-MEL-5 melanoma) | TGI (SK-MEL-5 melanoma) |
| --- | --- | --- | --- | --- | --- | --- | --- | --- | --- | --- | --- | --- | --- | --- | --- | --- |
| Cc1c(N2C(=O)/C(=C\c3ccc(N(C)C)cc3)N=C2c2ccccc2)c(=O)n(-c2ccccc2)n1C | 33.7 µM | > 100 µM | > 100 µM | > 100 µM | > 100 µM | > 100 µM | 68.4 µM | > 100 µM | > 100 µM | > 100 µM | > 100 µM | > 100 µM | 71.3 µM | > 100 µM | 36.3 µM | > 100 µM |
| O=C1c2cccc3cc([N+](=O)[O-])cc(c23)C(=O)N1O | – | > 100 µM | – | > 100 µM | – | > 100 µM | – | > 100 µM | – | 83.6 µM | – | > 100 µM | – | > 100 µM | – | > 100 µM |
| CCN1C(=O)N(CC)C2C1NN=c1s/c(=C\c3ccccc3)c(=O)n12 (configuration not stated) | 0.0786 µM | > 100 µM | 0.0316 µM | 0.109 µM | 0.874 µM | > 100 µM | 0.388 µM | > 100 µM | 32.8 µM | > 100 µM | > 72.7 µM | > 100 µM | 0.308 µM | > 100 µM | 0.147 µM | 6.11 µM |
| COc1cc(C2C(C#N)=C(N)Oc3cc4c(cc32)OCO4)cc2c1OCO2 (configuration not stated) | 0.455 µM | > 100 µM | – | – | 0.597 µM | > 90.9 µM | 0.594 µM | > 100 µM | 2.36 µM | > 79.8 µM | 0.9 µM | > 100 µM | 0.362 µM | > 100 µM | 0.101 µM | 14.3 µM |
| C[C@@H](Oc1cc(-c2cnn(C3CC4(CCCNC4)C3)c2)cnc1N)c1c(Cl)ccc(F)c1Cl (some centres not stated) | 0.741 µM | 2.23 µM | 0.77 µM | 2.18 µM | 1.64 µM | 3.19 µM | – | – | 2.02 µM | 5.47 µM | 1.45 µM | 2.88 µM | 1.88 µM | 6.92 µM | 1.5 µM | 2.87 µM |
| Cc1cccnc1CNC1CC(NCc2ncccc2C)CC(NCc2ncccc2C)C1 (configuration not stated) | 1.63 µM | 3.24 µM | 4.16 µM | 10.7 µM | 2.15 µM | 4.55 µM | 2.56 µM | 8.14 µM | 3.49 µM | 11.3 µM | 1.74 µM | 3.58 µM | 1.88 µM | 3.58 µM | 1.92 µM | 3.83 µM |
| CCN(CC)c1ccc2nc3c4ccccc4c(=NC(=O)c4ccccc4-c4c5ccc(N(CC)CC)cc5[o+]c5cc(N(CC)CC)ccc45)cc-3oc2c1 | 1.88 µM | > 22.4 µM | 1.93 µM | 4.33 µM | 2.41 µM | 6.68 µM | 3.52 µM | > 32.6 µM | 10.3 µM | 31.5 µM | 1.46 µM | 3.4 µM | 1.75 µM | 3.46 µM | 1.26 µM | 2.68 µM |
| CC(C)CNc1nc(N=[N+]=[N-])nc(NCC(C)C)n1 | > 10 µM | > 10 µM | > 10 µM | > 10 µM | > 10 µM | > 10 µM | – | – | > 10 µM | > 10 µM | > 10 µM | > 10 µM | > 10 µM | > 10 µM | > 10 µM | > 10 µM |
| Nc1cccc2nsnc12 | – | > 100 µM | – | > 100 µM | – | > 100 µM | – | > 100 µM | – | > 100 µM | – | > 100 µM | – | > 100 µM | – | > 100 µM |
| OC(c1ccccc1)c1c(-c2ccccc2)oc(-c2ccccc2)c1C(O)c1ccccc1 (configuration not stated) | – | 18.3 µM | – | 21.1 µM | – | 21 µM | – | 19.6 µM | – | 29 µM | – | – | – | 28.3 µM | – | 23.6 µM |
| CC[O-].CC[O-].O=C([CH-]C(=O)c1ccccc1)c1ccccc1.O=C([CH-]C(=O)c1ccccc1)c1ccccc1.[Ti+4] | > 100 µM | > 100 µM | – | – | > 100 µM | > 100 µM | > 100 µM | > 100 µM | > 100 µM | > 100 µM | > 100 µM | > 100 µM | – | – | > 100 µM | > 100 µM |
| Oc1[nH]c2ccc(Cl)cc2c1/C=c1/ccc2c(c1)N=C(c1cc(F)cc(F)c1)N=2 | – | – | – | – | 3.66 µM | > 100 µM | 27.7 µM | > 100 µM | 7.22 µM | > 100 µM | – | – | 4.82 µM | > 100 µM | 4.07 µM | > 100 µM |
| O=C(NO)c1cnc(N2CCN(S(=O)(=O)c3ccc4ccccc4c3)CC2)nc1 | 0.03 µM | 10.1 µM | 0.0456 µM | 0.394 µM | 0.193 µM | 2.83 µM | – | – | 0.0432 µM | 0.454 µM | 0.0249 µM | 0.188 µM | 0.0445 µM | 2.23 µM | 0.0396 µM | 0.15 µM |
| C[C@@H]1CN2[C@H]3[C@@H]1CC[C@]31CCC(=O)O[C@]1(C)[C@@H]1CC[C@H]3CCC=C3[C@@H]12 | > 70 µM | > 70 µM | 48.2 µM | > 70 µM | > 70 µM | > 70 µM | > 70 µM | > 70 µM | > 70 µM | > 70 µM | – | – | > 70 µM | > 70 µM | > 70 µM | > 70 µM |
| COc1ccc(NC(=O)O[C@H]2[C@H](O[C@H]3[C@@H](O)COC(O[C@H]4C[C@H]5[C@@H]6CC=C7C[C@@H](O)CC[C@]7(C)[C@H]6CC[C@]5(C)[C@H]4[C@H](C)C(=O)CCC(C)C)[C@@H]3OC(C)=O)OC[C@@H](O)[C@@H]2O)cc1 (some centres not stated) | < 0.01 µM | 14.4 µM | < 0.01 µM | 0.0628 µM | < 0.01 µM | 11.3 µM | 0.349 µM | 11.2 µM | 0.0966 µM | 23.8 µM | – | – | 0.367 µM | 34.7 µM | < 0.01 µM | 0.0114 µM |
| CC(C)[O-].CC(C)[O-].[O-]c1cccc2cccnc12.[O-]c1cccc2cccnc12.[Ti+4] | 3.24 µM and 3.87 µM | > 100 µM | – | – | 3.38 µM and 4.05 µM | 20.9 µM | > 100 µM | > 100 µM | 34.4 µM | > 100 µM | – | > 100 µM | – | – | 25.2 µM | – |
| C=C(C)[C@@H]1CC[C@]2(C)[C@H](C=CC3=C4C[C@@](C)(CO)CC[C@]4(C)CC[C@]32C)[C@@]1(C)CCCN | 1.69 µM | 3.21 µM | 1.78 µM | 3.2 µM | 1.68 µM | 3.44 µM | 1.6 µM | 3.1 µM | 1.78 µM | 3.36 µM | 1.87 µM | 3.66 µM | 1.72 µM | 3.15 µM | – | – |
